Measured values: patent US6037351A, “Method of inhibiting hepatitis B virus” (priority 1996, dated 2000)

How the values were obtained:
MHBs (PreS2) antigen = assay: ELISA of MHBs (PreS2) antigen in unfractionated culture medium of 2.2.15 cells; assay type: cell-based, HBV
Method: FIG. 3D: Histogram of the area under the averaged peaks of the densitometric tracing of the gel in FIG. 3B. […] Equal volumes of the indicated samples were tested for HBV envelope antigens using the enzyme-linked imminosorbent assay (ELISA) method. Samples of unfractionated medium (FIGS. 4A, 4B and 4C) or partially purified virus (FIGS. 4D, 4E and 4F) from 3-day cultures were tested for HBV SHBs ("S) (FIGS. 4A and 4D), LHBs: "PreS1" (FIGS. 4B and 4E) or MHBs "PreS2" (FIGS. 4C and 4F) epitopes. Cultures were maintained in the indicated concentrations of NBDNJ, expressed in millimolar units and shown along the X axis.
Detection of HBV proteins by the Enzyme Linked Immunoabsorbant assay (ELISA).
Monoclonal antibodies used herein are well-known and are described by Heerman et al., J. Virol. 52, 396-402 (1984), for antibody to PreS1 (MA 18/7); Heerman et al., Intervirology 28: 14-21 (1987), for antibody to PreS2 (Q 19/10), see also Gerlich and Bruss, Molecular Biology of Hepatitis B Virus, ed. A. McLachlan, CRC Press, 109-144 (1992), and in Hepatitis B Vaccines in Clinical Practice, ed. R. W. Ellis, Marcel Dekker, Inc., pp. 41-82 (1992); and Heerman et al., in Viral Hepatitis and Liver Disease, ed. Zuckermann, A. R. Liss, 697-701 (1988), for antibody to S (C20-2).].
Samples were incubated in microtiter wells coated (overnight at 4° C.) with monoclonal antibodies specific for the LHBs, MHBs or SHBs epitopes and blocked with 1% BSA in PBS. After incubation with virus samples in for 1 hour (37° C.), plates were washed 4 times with PBS/0.1% Tween 20 non-ionic detergent.
Bound antigen was detected by incubation with peroxidase conjugated goat anti-HBs antibody (Behring) followed by development in orthophenylenediamine (0.33 mg/ml PBS-peroxide solution). Optical densities were read in a Behring plate reader. Tests on purified virus and total medium were conducted over a series of sample dilutions to insure proper quantification.
To distinguish between these possibilities, the amount and nature of envelope antigens in the culture medium was determined by both ELISA and Western analysis. […]

α-glucosidase I = settings: N-linked oligosaccharide processing enzyme; cited from earlier work

**Q.** What does the source list for `CCCCN1C[C@H](O)[C@@H](O)[C@H](O)[C@H]1CO` [NBDNJ, N-butyl-1,5-dideoxy-1,5-imino-D-glucitol]?
**A.** decrease in the amount of MHBs antigen in medium (in words) (MHBs (PreS2) antigen; 1000 μg/ml NBDNJ, 2.2.15 cells): two-fold decrease; decrease in total amount of MHBs (PreS2) antigen in medium (MHBs (PreS2) antigen; highest NBDNJ concentration, 4.5 mM or approximately 1000 μg/ml): approximately 2.5 fold; total amount of MHBs (PreS2) antigen in medium (in words) (MHBs (PreS2) antigen; unfractionated medium, 2.2.15 cells): modest, dose-dependentdecrease; inhibition of α-glucosidase I (in words) (α-glucosidase I): potent inhibitor
